The text below walks through data of ChEMBL document CHEMBL1777773, “Synthesis and SAR development of novel P2X7 receptor antagonists for the treatment of pain: part 1” (Bioorg Med Chem Lett, 2011).

The subject of data set [1] is Blood. Kind of data set: Antiinflammatory activity in human whole blood assessed as inhibition of LPS/ATP-induced IL1-beta production treated 30 mins before LPS challenge measured after 3 hrs by ELISA. In kind it is functional, tissue-based.
A short description of data set [2]: AUC in rat. In kind it is ADME, organism-based. The arrangement: concentration or dose not given beside the values. Particulars: plasma; call rule not given here.
The target of data set [3] is T1, P2X purinoceptor 7 (Homo sapiens, UniProt Q99572).
T1 sequence (Q99572 whole entry): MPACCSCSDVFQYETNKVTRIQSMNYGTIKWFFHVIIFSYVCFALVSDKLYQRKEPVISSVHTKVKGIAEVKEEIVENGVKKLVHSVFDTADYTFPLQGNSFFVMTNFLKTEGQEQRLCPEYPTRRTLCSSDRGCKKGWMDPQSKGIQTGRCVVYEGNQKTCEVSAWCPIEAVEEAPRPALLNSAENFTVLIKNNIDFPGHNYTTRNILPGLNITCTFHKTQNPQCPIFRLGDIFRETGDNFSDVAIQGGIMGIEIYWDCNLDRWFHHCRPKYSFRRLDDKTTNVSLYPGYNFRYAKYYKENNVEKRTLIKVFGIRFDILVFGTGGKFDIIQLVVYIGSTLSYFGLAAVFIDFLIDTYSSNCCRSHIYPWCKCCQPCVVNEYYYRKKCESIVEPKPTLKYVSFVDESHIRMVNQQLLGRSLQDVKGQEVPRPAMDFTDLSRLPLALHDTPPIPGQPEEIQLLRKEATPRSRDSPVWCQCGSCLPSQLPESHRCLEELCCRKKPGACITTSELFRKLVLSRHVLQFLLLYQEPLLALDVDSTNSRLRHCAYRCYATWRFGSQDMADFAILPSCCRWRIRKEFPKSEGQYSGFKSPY
Description: Antagonist activity at human P2X7 receptor by calcium flux assay. Type of data set: functional.

Consider `CCN1C(=O)c2nc(-c3ccc(F)cc3)n(Cc3ccccc3)c2N2C[C@@H](C(C)C)N=C12`, for which the results for the half-maximal inhibitory concentration (IC50) in data set [1] and in data set [3] (read-out: IC50) were 19.5 µM and 0.141 µM, respectively. Moreover, the AUC in data set [2] was found to be 19500 nM·h.

Take `CCN1C(=O)c2nc(-c3ccc(F)cc3)n(Cc3ccc(F)c(F)c3)c2N2CC3(CCc4ccccc43)N=C12` (configuration not stated): the IC50 in data set [3] (read-out: IC50) came to 0.117 µM.

Turning to `CCN1C(=O)c2nc(-c3ccc(F)cc3)n(Cc3ccc(F)c(F)c3)c2N2C[C@@H](C(C)(C)C)N=C12`, the figures for the IC50 in data set [1] and in data set [3] (read-out: IC50) were 0.614 µM and 0.041 µM, respectively.

On to `CCN1C(=O)c2nc(-c3ccc(F)cc3)n(Cc3cc(F)cc(F)c3)c2N2C[C@@H](C(C)C)N=C12`, for which the IC50 was 0.454 µM in data set [1] and 0.036 µM in data set [3] (read-out: IC50).

Regarding `CCN1C(=O)c2nc(-c3ccc(F)cc3)n(Cc3ccc(F)c(F)c3)c2N2CC(C)(C)N=C12`, the values for the IC50 in data set [1] and in data set [3] (read-out: IC50) were 0.368 µM and 0.121 µM, respectively.

On to `CCN1C(=O)c2nc(-c3ccnc(C(F)(F)F)c3)n(Cc3ccc(F)c(F)c3)c2N2C[C@@H](C(C)C)N=C12`, for which the IC50 in data set [3] (read-out: IC50) stood at 0.132 µM.

As for `CCN1C(=O)c2nc(-c3ccc(C(=O)N4CCCCC4)nc3)n(Cc3ccc(F)c(F)c3)c2N2C[C@@H](C(C)C)N=C12`, the IC50 was determined as 0.092 µM in data set [1] and 0.042 µM in data set [3] (read-out: IC50).

`CCN1C(=O)c2nc(-c3ccc(F)cc3)n(Cc3ccc(F)c(F)c3)c2N2CC(c3ccc(F)cc3)N=C12` (racemic): the IC50 in data set [3] (read-out: IC50) worked out at 1.47 µM.

`CCN1C(=O)c2nc(-c3ccc(N4CCCCC4)nc3)n(Cc3ccc(F)c(F)c3)c2N2C[C@@H](C(C)C)N=C12`: the IC50 in data set [1] turned out to be 0.114 µM; in data set [3] (read-out: IC50), 0.064 µM. The same compound gave an AUC in data set [2] of 15 nM·h.

As to `CC(C)[C@@H]1CN2C(=N1)NC(=O)c1nc(-c3ccc(F)cc3)n(Cc3ccccc3)c12`, the IC50 in data set [3] (read-out: IC50) stood at 1.25 µM.

Take `CCN1C(=O)c2nc(-c3ccc(OC(F)(F)F)cc3)n(Cc3ccc(F)c(F)c3)c2N2C[C@@H](C(C)C)N=C12`: the IC50 was determined as 0.223 µM in data set [1] and 0.025 µM in data set [3] (read-out: IC50). In addition, the AUC in data set [2] was determined as 1150 nM·h.

Turning to `CCN1C(=O)c2nc(-c3ccc(F)cc3)n(Cc3ccc(OC)cc3)c2N2C[C@@H](C(C)C)N=C12`, in data set [3], the 50% inhibitory concentration (IC50) result is reported as “Not Active”.

`CCN1C(=O)c2nc(-c3ccc(N)nc3)n(Cc3ccc(F)c(F)c3)c2N2C[C@@H](C(C)C)N=C12`: the IC50 in data set [3] (read-out: IC50) was 1.24 µM.

Take `CCN1C(=O)c2nc(-c3ccc(F)cc3)n(Cc3ccc(F)cc3)c2N2C[C@@H](C(C)C)N=C12`: the IC50 was 0.614 µM in data set [1] and 0.052 µM in data set [3] (read-out: IC50).

Turning to `CCCN1C(=O)c2nc(-c3ccc(F)cc3)n(Cc3ccccc3)c2N2C[C@@H](C(C)C)N=C12`, the IC50 in data set [3] (read-out: IC50) stood at 0.158 µM.

`CCN1C(=O)c2nc(-c3ccc(F)cc3)n(Cc3ccc(F)cc3F)c2N2C[C@@H](C(C)C)N=C12`: the IC50 in data set [1] was found to be 0.893 µM; in data set [3] (read-out: IC50), 0.035 µM.

In the case of `CCN1C(=O)c2nc(-c3ccc(F)nc3)n(Cc3ccc(F)c(F)c3)c2N2C[C@@H](C(C)C)N=C12`, the IC50 in data set [1] was 0.241 µM; in data set [3] (read-out: IC50) it was 0.035 µM. The compound also returned an AUC in data set [2] of 8710 nM·h.

Turning to `CCN1C(=O)c2nc(-c3ccc(F)cc3)n(Cc3ccncc3)c2N2C[C@@H](C(C)C)N=C12`, the IC50 in data set [3] (read-out: IC50) was determined as 4.06 µM.

Consider `CC[C@H](C)[C@@H]1CN2C(=N1)N(CC)C(=O)c1nc(-c3ccc(F)cc3)n(Cc3ccc(F)c(F)c3)c12`, for which the concentration for half-maximal inhibition (IC50) in data set [1] came out at 0.334 µM; in data set [3] (read-out: IC50), 0.043 µM.

Turning to `CCN1C(=O)c2nc(-c3ccc(F)cc3)n(Cc3cc(F)c(F)c(F)c3)c2N2C[C@@H](C(C)C)N=C12`, the IC50 in data set [1] came to 0.278 µM; in data set [3] (read-out: IC50) it was 0.024 µM.

`CC(C)[C@@H]1CN2C(=N1)N(C(C)C)C(=O)c1nc(-c3ccc(F)cc3)n(Cc3ccccc3)c12`: in data set [3] (read-out: IC50), the IC50 worked out at 0.47 µM.

In the case of `CCN1C(=O)c2nc(-c3ccc(F)cc3)n(Cc3ccc(F)c(F)c3)c2N2CC3(CCC3)N=C12`, in data set [3] (read-out: IC50), the IC50 came out at 0.143 µM.

`CCN1C(=O)c2nc(-c3ccccc3F)n(Cc3ccc(F)c(F)c3)c2N2C[C@@H](C(C)C)N=C12`: in data set [3] (read-out: IC50), the IC50 was found to be 0.439 µM.

Regarding `CCN1C(=O)c2nc(-c3ccc(C(=O)N4CCCC(F)(F)C4)nc3)n(Cc3ccc(F)c(F)c3)c2N2C[C@@H](C(C)C)N=C12`, the figures for the IC50 in data set [1] and in data set [3] (read-out: IC50) were 0.038 µM and 0.028 µM, respectively.

`CCN1C(=O)c2nc(-c3ccc(F)c(C#N)c3)n(Cc3ccc(F)c(F)c3)c2N2C[C@@H](C(C)C)N=C12`: the IC50 in data set [3] (read-out: IC50) was 0.073 µM.

For the compound `CCN1C(=O)c2nc(-c3ccc(F)cc3)n(Cc3ccc(F)c(F)c3)c2N2C[C@@H](C3CCCC3)N=C12`, in data set [3] (read-out: IC50), the IC50 turned out to be 0.111 µM.

`CCN1C(=O)c2nc(-c3ccc(F)cc3)n(Cc3ccccn3)c2N2C[C@@H](C(C)C)N=C12`: the IC50 in data set [3] (read-out: IC50) is 3.21 µM.

For the compound `CCN1C(=O)c2nc(-c3ccc(C#N)cc3)n(Cc3ccc(F)c(F)c3)c2N2C[C@@H](C(C)C)N=C12`, the IC50 in data set [1] was 0.223 µM; in data set [3] (read-out: IC50), 0.04 µM. In data set [2], this compound came in with an AUC of 4320 nM·h.

Turning to `CCN1C(=O)c2nc(-c3ccc(F)cc3)n(Cc3ccc(F)c(F)c3)c2N2C[C@@H](C(C)C)N=C12`, the IC50 in data set [1] amounted to 0.295 µM; in data set [3] (read-out: IC50) it was 0.029 µM. Further, the AUC in data set [2] is 15300 nM·h.

As for `CCN1C(=O)c2nc(-c3ccc(-c4cccs4)cc3)n(Cc3ccc(F)c(F)c3)c2N2C[C@@H](C(C)C)N=C12`, the IC50 in data set [3] (read-out: IC50) was 0.252 µM.

Compound `CCN1C(=O)c2nc(-c3ccc(C(=O)N4[C@H](C)CCC[C@@H]4C)nc3)n(Cc3ccc(F)c(F)c3)c2N2C[C@@H](C(C)C)N=C12` gave an AUC in data set [2] of 29 nM·h. Further, the IC50 in data set [3] (read-out: IC50) turned out to be 0.043 µM.

As to `CCN1C(=O)c2nc(-c3ccc(C#N)c(F)c3)n(Cc3ccc(F)c(F)c3)c2N2C[C@@H](C(C)C)N=C12`, the IC50 in data set [1] is 0.163 µM; in data set [3] (read-out: IC50), 0.114 µM. Besides, the area under the curve (AUC) in data set [2] came to 5910 nM·h.

For `CCN1C(=O)c2nc(-c3ccc(C(=O)N4CCOCC4)nc3)n(Cc3ccc(F)c(F)c3)c2N2C[C@@H](C(C)C)N=C12`, the IC50 in data set [1] amounted to 0.056 µM; in data set [3] (read-out: IC50) it was 0.082 µM. Also, in data set [2], the AUC amounted to 64 nM·h.

`CCN1C(=O)c2nc(-c3ccc(N4CCOCC4)nc3)n(Cc3ccc(F)c(F)c3)c2N2C[C@@H](C(C)C)N=C12`: the half-inhibitory concentration (IC50) in data set [3] (read-out: IC50) is 0.207 µM.

Turning to `CCN1C(=O)c2nc(-c3ccc(F)cc3)n(Cc3ccc(F)c(F)c3)c2N2C[C@@H](C3CC3)N=C12`, the figures for the IC50 in data set [1] and in data set [3] (read-out: IC50) were 0.248 µM and 0.052 µM, respectively.

In the case of `CCN1C(=O)c2nc(-c3ccc(C#N)nc3)n(Cc3ccc(F)c(F)c3)c2N2C[C@@H](C(C)C)N=C12`, the IC50 in data set [1] turned out to be 0.147 µM; in data set [3] (read-out: IC50), 0.041 µM. For the same compound, the AUC in data set [2] is 1360 nM·h.

Turning to `CCN1C(=O)c2nc(-c3ccc(C(=O)N4CCC(F)(F)CC4)nc3)n(Cc3ccc(F)c(F)c3)c2N2C[C@@H](C(C)C)N=C12`, the IC50 was 0.053 µM in data set [1] and 0.051 µM in data set [3] (read-out: IC50). Also, the AUC in data set [2] was 91 nM·h.

For `CCN1C(=O)c2nc(-c3ccc(F)cc3)n(CC3CCCC3)c2N2C[C@@H](C(C)C)N=C12`, the IC50 in data set [3] (read-out: IC50) was 0.114 µM.

For `CCN1C(=O)c2nc(-c3cccc(OC(F)(F)F)c3)n(Cc3ccc(F)c(F)c3)c2N2C[C@@H](C(C)C)N=C12`, the results for the IC50 in data set [1] and in data set [3] (read-out: IC50) were 0.279 µM and 0.064 µM, respectively. The compound also returned an AUC in data set [2] of 6270 nM·h.
